This is an account of results in patent US11149004B2, “Crystalline form of EB-1020, processes for preparation and use thereof” (priority 2017, dated 2021).

Entries after “also recorded” stand apart in the source; their conditions may differ. Read-outs that look alike come from different tables or passages of the source. Marks after values point to notes of the source that are not given here.

Series [1] in a line: Storage stability of prior art Form C. Type of series: physicochemical. Conditions: room temperature, a month; found by the inventors. The text has this: The prior art WO2016205762A disclosed Form A, Form B and Form C of EB-1020.
For series [2] the following is noted: 40° C./75% RH, two weeks; per WO2016205762A paragraph [00232]; cited from earlier work.
Series [3] in a line: Adhesiveness of Form CS1 (material sticking to the punch). The format is physicochemical. As to the method:
30 mg of Form CS1 were weighed and then added into the dies of φ8 mm round tooling, compressed at 10 KN and held for 30s. The punch was weighed and the amount of material sticking to the punch was calculated. The compression was repeated twice and the cumulative amount, maximum amount and average amount of material sticking to the punch during the compression were recorded.

A short description of series [4]: Compressibility of Form CS1 (tensile strength). Type of series: physicochemical. As to the method: A manual tablet press was used for compression. A certain amount of Form CS1 were added into the dies of round tooling and compressed at certain pressure manually, the tablet was stored in a desiccator for 24 h until complete elastic recovery. Hardness (H) was tested with an Intelligent Tablet Hardness Tester. Diameter (D) and thickness (L) were tested with a caliper. Tensile strength of the powder was calculated with the following formula: T=2H/πDL. Under a certain force, the greater the tensile strength, the better the compressibility.

Series [5] is described as follows: Morphology (polarizing microscope, PLM). The format is physicochemical. The text has this:
Morphology of Form CS1 of the present disclosure was checked by a polarizing microscope (PLM), and the PLM image is shown in FIG. 11. […] Form CS1 has better flowability and is more suitable for processing and preparing drug product.

A short description of series [6]: Kinetic solubility in FaSSIF and FeSSIF. Type of series: physicochemical. The following applies: for Solubility (mg/mL) eSSIF / Solubility (mg/mL) FaSSIF: hydrochloride. The text has this: High Performance Liquid Chromatography (HPLC) data for solubility test in the present disclosure were collected from an Agilent 1260 with Diode Array Detector (DAD). The method parameters are as follows:
Simulated gastrointestinal fluids such as FaSSIF (Fasted state simulated intestinal fluids) and FeSSIF (Fed state simulated intestinal fluids) are biorelevant media. Solubility in such media is close to in vivo solubility, because these media can reflect the effects of intestinal environment on drug release better.
A certain amount of Form CS1, prior art Form A and Form B were suspended in FaSSIF and FeSSIF to get saturated solutions. After equilibration for 4 h, concentrations (mg/mL) of the saturated solutions were measured by HPLC.

Series [7] in a line: Grinding stability of Form CS1, prior art Form A and Form B. The format is physicochemical. The following applies: ground manually for 5 minutes in a mortar, XRPD, hydrochloride. As to the method:
A certain amount of Form CS1, prior art Form A and Form B were ground manually for 5 minutes in a mortar. The XRPD patterns of Form CS1 before and after grinding are as depicted in FIG. 8 (top: before grinding; bottom: after grinding). The XRPD patterns of prior art Form A before and after grinding are as depicted in FIG. 9 (top: before grinding; bottom: after grinding). The XRPD patterns of prior art Form B before and after grinding are as depicted in FIG. 10 (top: before grinding; bottom: after grinding).

The nature of series [8]: Physical stability of Form CS1 under different pressures (tableting). Type of series: physicochemical. Conditions: for Crystalline form after tableting: XRPD. The text has this:
A certain amount of Form CS1 were compressed into pellets under different pressures with suitable tableting die. Crystalline forms before and after tableting were checked by XRPD.

The conditions of series [9]: according to WO2016205762A paragraph [00179]; cited from earlier work.
The mark [10] stands for this setting: 30 mg, φ8 mm round tooling, 10 KN, held 30s.
Where [11] appears, read: φ6 mm round tooling, 80 mg, 10 kN, after 24 h elastic recovery.
Setting [12] is: FaSSIF, equilibration 4 h, HPLC.

Consider `Cl.c1ccc2cc([C@]34CNC[C@H]3C4)ccc2c1` [Form C, (1R,5S)-1-(naphthalen-2-yl)-3-azabicyclo[3.1.0]hexane hydrochloride], for which the “Crystalline form after storage” value in series [1] is “converted to Form A”; in [2], “converted to a mixture of Form A and Form B”.
In the case of `Cl.c1ccc2cc([C@]34CNC[C@H]3C4)ccc2c1` [Form CS1, (1R,5S)-1-(naphthalen-2-yl)-3-azabicyclo[3.1.0]hexane hydrochloride], the Adhesiveness entry in [3] is “low adhesiveness”. Besides, in [3] (setting [10]), the “Average amount (mg) of material sticking to the punch” value is on record as 0* mg, the “Cumulative amount (mg) of material sticking to the punch” value is given as 0* mg and the “Maximum amount (mg) of material sticking to the punch” value turned out to be 0.07 mg. In series [4], the Compressibility entry is “good compressibility”. For the same compound, the “Tensile strength (MPa)” value in series [4] (T=2H/πDL, φ6 mm round tooling, 80 mg, 10 kN) is reported as 1.04 MPa. In series [4] (setting [11]), the “Diameter (mm)” value was 6.95 mm and the “Thickness (mm)” value is listed as 2.40 mm. Moreover, the Morphology entry in series [5] was “spherical or short rod-like crystal”. Besides, the solubility at 4 h in [6] (FaSSIF (fasted state simulated intestinal fluid), fassif, thermodynamic from solid, FaSSIF, equilibration 4 h, HPLC, read-out: Solubility (mg/mL) FaSSIF) is 75.3 mg/mL. Moreover, the “Solubility compared with prior art Form A and Form B” value in series [6] (FaSSIF and FeSSIF) is “higher”. Further, the “Solubility relative to prior art Form A and Form B” value in series [6] (FeSSIF) is recorded as “almost twice”. Moreover, the “Solubility (mg/mL) eSSIF” value in series [6] (equilibration 4 h, HPLC) was 74.8 mg/mL. Besides, in series [7], the “Crystalline form after grinding” value is reported as “remains unchanged” and the Crystallinity after grinding result is on record as “remained substantially unchanged; also recorded: little change in crystallinity”. In addition, in [8] (Pressure 3 kN), the “Crystalline form after tableting” value was “Form CS1”. In [8] (Pressure 7 kN), the “Crystalline form after tableting” value was “Form CS1”. Moreover, the “Crystalline form after tableting” value in series [8] (Pressure 14 kN) is reported as “Form CS1”. Besides, in series [8] (different pressures), the “Crystalline form after compression into tablets under different pressures” value is listed as “remains unchanged”.
Regarding `Cl.c1ccc2cc([C@]34CNC[C@H]3C4)ccc2c1` [prior art Form A, (1R,5S)-1-(naphthalen-2-yl)-3-azabicyclo[3.1.0]hexane hydrochloride, reference compound], the “Solubility (mg/mL) FaSSIF” value in series [6] (setting [12]) is 46.9 mg/mL. Further, the “Solubility (mg/mL) eSSIF” value in [6] (equilibration 4 h, HPLC) is listed as 36.0 mg/mL. In addition, the Morphology result in series [9] is on record as “needle-like crystals”. Besides, the Crystallinity after grinding result is “decreased obviously” in series [7] and “obvious decrease of crystallinity” in series [7] (listed as Form A).
Regarding `Cl.c1ccc2cc([C@]34CNC[C@H]3C4)ccc2c1` [prior art Form B, (1R,5S)-1-(naphthalen-2-yl)-3-azabicyclo[3.1.0]hexane hydrochloride, reference compound], the “Solubility (mg/mL) FaSSIF” value in series [6] (setting [12]) was 52.0 mg/mL. In addition, the “Solubility (mg/mL) eSSIF” value in series [6] (equilibration 4 h, HPLC) turned out to be 29.2 mg/mL. Also, the Morphology entry in series [9] is given as “needle-like crystals”. The “Crystalline form after grinding” value was “changed” in series [7] and “partially converts to Form A” in [7] (listed as Form B).
